# Data as given in patent publication US11160796B2, “Anti-androgens for the treatment of non-metastatic castration-resistant prostate cancer” (priority 2017, dated 2021).
# Where two headings read alike, the source gives them in different places.
# What was measured:
# [1] = target: P-gp (Homo sapiens, UniProt P08183); test: In vitro transporter substrate assessment: P-gp
# [2] = tested on: BCRP, OATP1B1, and OATP1B3; test: In vitro transporter substrate assessment: BCRP, OATP1B1, OATP1B3
# [3] = Preclinical pharmacokinetic profile; format: in vivo; conditions: relative to apalutamide
# [4] = tested on: human CYP2B6 and CYP3A4; test: CYP induction in vitro (hepatocytes)
# [5] = human, in vivo
# [6] = tested on: plasma proteins; test: Plasma protein binding; conditions: no concentration dependency
# [7] = tested on: CYP2B6 and CYP2C8; test: In vitro CYP inhibition: CYP2B6 and CYP2C8
# [8] = tested on: CYP1A2 and CYP2D6; test: In vitro effect on CYP1A2 and CYP2D6; conditions: therapeutically relevant concentrations
# [9] = Single oral administration of 14C-labeled apalutamide 240 mg (metabolite profile, excretion)
# [10] = tested on: organic cation transporter 2 (OCT2), organic anion transporter 3 (OAT3) and multidrug and toxin extrusions (MATEs); test: In vitro transporter inhibition: OCT2, OAT3, MATEs; format: in vitro ADME
# [11] = target: T1, organic anion transporter 1 (OAT1) (Homo sapiens, UniProt Q4U2R8); test: In vitro transporter inhibition: OAT1
# T1 sequence (Q4U2R8 1-563): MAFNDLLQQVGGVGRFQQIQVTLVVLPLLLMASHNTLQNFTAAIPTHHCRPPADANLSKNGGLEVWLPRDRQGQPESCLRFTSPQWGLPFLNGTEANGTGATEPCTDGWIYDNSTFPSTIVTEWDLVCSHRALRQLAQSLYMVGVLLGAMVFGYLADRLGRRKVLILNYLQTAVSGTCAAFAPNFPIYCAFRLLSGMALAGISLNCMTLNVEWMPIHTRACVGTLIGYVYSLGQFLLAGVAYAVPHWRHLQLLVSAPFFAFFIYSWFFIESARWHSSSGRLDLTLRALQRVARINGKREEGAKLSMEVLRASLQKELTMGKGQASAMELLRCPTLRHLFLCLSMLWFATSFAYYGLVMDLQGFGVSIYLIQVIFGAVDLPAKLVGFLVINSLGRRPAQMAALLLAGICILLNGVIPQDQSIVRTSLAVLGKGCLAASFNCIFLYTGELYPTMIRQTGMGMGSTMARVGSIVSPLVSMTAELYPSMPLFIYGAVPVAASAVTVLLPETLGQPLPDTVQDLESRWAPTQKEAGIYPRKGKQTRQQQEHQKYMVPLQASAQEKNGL
# [12] = tested on: CYP2C9, CYP2C19, and CYP3A4; test: In vitro CYP inhibition: CYP2C9, CYP2C19, CYP3A4
# [13] = target: androgen receptor (AR) (Homo sapiens, UniProt P10275); conditions: cited from earlier work
# [14] = human, in vivo, po, 240 mg
# [15] = listed as N-desmethyl metabolite
# Sequence of androgen receptor (AR) (P10275 whole entry): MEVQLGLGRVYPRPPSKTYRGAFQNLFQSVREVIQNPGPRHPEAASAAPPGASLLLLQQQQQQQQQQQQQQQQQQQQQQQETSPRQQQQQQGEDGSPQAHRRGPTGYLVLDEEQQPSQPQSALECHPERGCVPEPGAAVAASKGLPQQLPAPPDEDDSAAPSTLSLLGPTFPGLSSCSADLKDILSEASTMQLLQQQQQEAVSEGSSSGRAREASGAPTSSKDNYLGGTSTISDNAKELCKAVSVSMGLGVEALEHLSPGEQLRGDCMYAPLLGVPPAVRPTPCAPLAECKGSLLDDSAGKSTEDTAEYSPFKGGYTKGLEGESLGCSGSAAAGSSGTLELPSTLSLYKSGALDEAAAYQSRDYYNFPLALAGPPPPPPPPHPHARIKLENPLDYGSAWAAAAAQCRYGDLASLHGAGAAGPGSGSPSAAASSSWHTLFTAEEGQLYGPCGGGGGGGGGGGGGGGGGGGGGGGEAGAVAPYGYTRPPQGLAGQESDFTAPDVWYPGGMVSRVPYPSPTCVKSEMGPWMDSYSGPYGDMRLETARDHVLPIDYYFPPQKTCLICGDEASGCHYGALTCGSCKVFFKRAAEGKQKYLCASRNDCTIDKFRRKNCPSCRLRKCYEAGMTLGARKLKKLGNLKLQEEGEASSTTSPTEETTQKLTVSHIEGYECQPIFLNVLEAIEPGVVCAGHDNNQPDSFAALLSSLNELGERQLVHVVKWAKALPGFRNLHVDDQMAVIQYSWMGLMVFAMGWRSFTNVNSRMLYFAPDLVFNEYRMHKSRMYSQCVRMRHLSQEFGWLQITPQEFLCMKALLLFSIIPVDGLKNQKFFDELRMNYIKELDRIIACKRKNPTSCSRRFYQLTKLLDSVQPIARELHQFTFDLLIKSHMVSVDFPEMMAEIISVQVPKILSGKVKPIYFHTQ
# Sequence of P-gp (P08183 whole entry): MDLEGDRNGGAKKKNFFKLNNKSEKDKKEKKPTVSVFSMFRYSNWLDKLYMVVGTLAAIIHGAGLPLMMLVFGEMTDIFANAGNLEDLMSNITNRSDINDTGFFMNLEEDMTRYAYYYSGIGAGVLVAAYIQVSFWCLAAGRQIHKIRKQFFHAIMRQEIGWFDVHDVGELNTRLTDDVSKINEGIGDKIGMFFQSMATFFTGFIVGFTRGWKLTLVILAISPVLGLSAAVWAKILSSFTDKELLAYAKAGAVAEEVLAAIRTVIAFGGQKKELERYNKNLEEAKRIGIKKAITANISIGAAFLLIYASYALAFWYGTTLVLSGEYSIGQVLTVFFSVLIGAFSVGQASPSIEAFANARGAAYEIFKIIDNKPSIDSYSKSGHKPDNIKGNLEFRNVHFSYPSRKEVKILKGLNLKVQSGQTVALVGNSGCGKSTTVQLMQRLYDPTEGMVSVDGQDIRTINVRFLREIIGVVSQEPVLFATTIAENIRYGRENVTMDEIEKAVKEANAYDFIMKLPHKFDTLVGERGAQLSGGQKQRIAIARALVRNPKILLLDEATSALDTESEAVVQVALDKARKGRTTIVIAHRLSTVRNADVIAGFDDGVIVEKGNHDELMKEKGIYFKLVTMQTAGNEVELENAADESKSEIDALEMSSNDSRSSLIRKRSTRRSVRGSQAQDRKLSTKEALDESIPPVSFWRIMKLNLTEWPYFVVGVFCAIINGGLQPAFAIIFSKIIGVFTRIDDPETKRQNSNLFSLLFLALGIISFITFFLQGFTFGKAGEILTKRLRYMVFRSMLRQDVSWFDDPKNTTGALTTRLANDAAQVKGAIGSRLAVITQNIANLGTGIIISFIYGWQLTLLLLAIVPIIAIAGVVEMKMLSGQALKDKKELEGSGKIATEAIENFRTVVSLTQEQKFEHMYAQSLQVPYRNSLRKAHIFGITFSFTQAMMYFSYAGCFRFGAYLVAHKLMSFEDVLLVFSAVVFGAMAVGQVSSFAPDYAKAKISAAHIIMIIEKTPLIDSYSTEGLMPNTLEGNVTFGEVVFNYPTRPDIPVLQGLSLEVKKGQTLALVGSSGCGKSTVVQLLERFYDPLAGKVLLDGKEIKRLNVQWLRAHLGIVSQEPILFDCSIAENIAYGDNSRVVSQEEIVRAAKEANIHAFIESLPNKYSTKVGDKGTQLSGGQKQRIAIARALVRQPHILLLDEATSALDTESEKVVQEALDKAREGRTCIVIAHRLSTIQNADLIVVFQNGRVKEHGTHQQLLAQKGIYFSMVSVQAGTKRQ
compound,measurement,setting,value
N-desmethyl apalutamide,substrate for P-gp,[1],substrates for P-gp
same,"substrate for BCRP, OATP1B1, and OATP1B3",[2],"not BCRP, OATP1B1, and OATP1B3"
same,elimination half-life,[3],longer elimination half-life than apalutamide
same,induction of human CYP2B6 and CYP3A4 in hepatocytes,[4]; concentrations up to 30 μM,inducers
same,CYP3A4 and CYP2B6 induction,[4]; in vitro studies,moderate to strong CYP3A4 and CYP2B6 inducers
same,"AUC at steady-state, mean",[5],124 µg·h/mL
same,"Cmax at steady-state, mean",[5],5900 ng/mL
same,differences in pharmacokinetics in specific populations,[5],No clinically significant differences
same,"AUC at steady-state, mean",[5]; 240 mg,124 µg·h/mL
same,"Cmax at steady-state, mean",[5]; 240 mg,5900 ng/mL
same,bound to plasma proteins,[6],95%
same,inhibition of CYP2B6 and CYP2C8,[7],moderate inhibitors
same,effect on CYP1A2 and CYP2D6,[8],do not affect
same,share of the total 14C-AUC in plasma,[9]; single oral 240 mg,44%
same,% of dose in feces as this compound,[9]; up to 70 days,2%
same,% of dose in urine as this compound,[9]; up to 70 days,2.7%
same,"inhibition of OCT2, OAT3 and MATEs",[10],inhibit
same,"inhibition of OCT2, OAT3 and MATEs",[10]; [15],cannot be excluded
same,inhibition of OAT1,[11],do not inhibit
same,inhibition of OAT1,[11]; [15],No in vitro inhibition
same,"inhibition of CYP2C9, CYP2C19, and CYP3A4",[12],weak inhibitors
CC(O)c1cc(C(=O)N[C@@H](C)Cn2ccc(-c3ccc(C#N)c(Cl)c3)n2)[nH]n1 (some centres unmarked) [Darolutamide],binding affinity to AR,[13],high affinity
N#Cc1ncc(N2C(=O)C3(CCC3)N(c3ccc(C(=O)O)c(F)c3)C2=S)cc1C(F)(F)F [inactive carboxylic acid metabolite],share of the total 14C-AUC in plasma,[14],3%
